Structures can show the parent of a compound that is named as a salt.
Legend:
Rats = experiment: Rat left anterior descending coronary artery ligation, histological examination of hearts; format: in vivo; settings: 10 mg/kg daily intraperitoneal for 30 days before ligation and 14 days after
Procedure: Rats received a daily intraperitoneal dose of 10 mg/kg 3-[2-phenyl-2-oxoethyl]-4,5-dimethyl-thiazolium salt (compound A) (n=14) or placebo (n=15) for 30 days. The animals then underwent a thoracotomy and the left anterior descending coronary artery ligated. The chest was then closed and the animals allowed to recover for 14 days while continuing to be treated with compound A or placebo. The animals were then sacrificed and the hearts removed for histological examination. The weight of the infarcted tissue was 0.16±0.04 g for the placebo treated animals compared to 0.11±0.05 g for the compound A treated animals (p=0.04).

[1] = test system: elderly patients with pulse pressures greater than 60 mm Hg; experiment: Phase Ia clinical trial; format: in vivo, human
Excerpt: When the heart pumps blood into the vascular system, the ability of the arteries to expand helps to push blood through the body. When arteries become stiff, as they do in the natural process of aging, the ability of the arteries to expand is diminished and also has consequences for the heart. The heart has to work harder to pump the blood into the stiff arteries, and eventually hypertrophies (enlarges in size) to accomplish this. A hypertrophied heart is an inefficient pump, and is one of the disorders that leads to congestive heart failure. […] The potential clinical benefit of this is to lessen the effort that the heart must expend to push blood throughout the body. The effect is also believed to contribute to preventing hypertrophy and subsequent inefficiency of the heart, which inefficiency would contribute to congestive heart failure.
Atherosclerosis is a disease that involves deposition of blood lipids in plaque in the arteries throughout the body. In coronary arteries, accumulation of plaque progressively leads to reduced coronary flow, with occlusion of the arteries causing focal death of cardiac tissue (myocardial infarction, heart attack). If the amount of tissue that dies is large enough, death ensures. […]

dog model for diabetes = experiment: Dog model for diabetes, indicators of ventricular elasticity; format: in vivo
Excerpt: (§1) Cardiovascular risk correlates more closely with the systolic and the pulse pressure than with the diastolic pressure. In diabetic patients, the cardiovascular risk profile of diabetic patients is strongly correlated to duration of diabetes, glycemic control and blood pressure. Structural matrix proteins contribute to the function of vessels and the heart, and changes in the physical behavior of cardiovascular walls are believed to be important determinants of circulatory function. In elderly individuals, the loss of compliance in the aorta leads to isolated systolic hypertension, which in turn expands the arterial wall and thereby diminishes the dynamic range of elasticity. […] Treatment with 3-[2-phenyl-2-oxoethyl]-4,5-dimethyl-thiazolium salt lead to a reduction in the mass of collagen in cardiovascular tissues.

[2] = test system: rodents, canines and primates; experiment: In vivo studies of vascular stiffening and collagen mass in cardiovascular tissues
Excerpt: as §1

TGFbeta = experiment: In situ hybridization studies
Excerpt: as §1

Type IV collagen = experiment: In situ hybridization studies
Excerpt: as §1

Cc1sc[n+](CC(=O)c2ccccc2)c1C [compound A, 3-[2-phenyl-2-oxoethyl]-4,5-dimethyl-thiazolium salt]
thickness of the ventricular wall in the infarcted zone (Rats): 2.56±0.22 mm
weight of the infarcted tissue (Rats): 0.11 ± 0.05 g
stiffness of arteries, as measured by the ratio of stroke volume (ml) to pulse pressure (mm Hg) ([1]; Phase Ia clinical trial): showed an ability to reverse the stiffness of arteries
pulse pressure ([1]; Phase Ia trial, elderly patients with pulse pressures greater than 60 mm Hg): reduced
end diastolic pressure (dog model for diabetes): returned to a value at about the mid-point between the disease impaired value and the value for control dogs
end diastolic volume (dog model for diabetes): returned to a value at about the mid-point between the disease impaired value and the value for control dogs
mass of collagen in cardiovascular tissues ([2]; in vivo): reduction
vascular stiffening ([2]; in vivo studies in rodents, canines and primates): substantially ameliorating vascular stiffening
expression of TGFbeta (TGFbeta): reduces
expression of Type IV collagen (Type IV collagen): reduces
